Measurements: patent US20260184707A1, “PHARMACEUTICAL COMPOUNDS FOR THE TREATMENT OF COMPLEMENT MEDIATED DISORDERS” (ALEXION PHARMACEUTICALS, INC., priority 2022, published 2026)

Target: T1, Human complement C1s enzyme (Homo sapiens, UniProt P09871)
T1 construct: purified from human serum, Complement Technology, Inc; purchased Complement Technology, Inc; host or cells: human serum (plasma-derived native protein)
T1 sequence (P09871 438-688 limits assumed): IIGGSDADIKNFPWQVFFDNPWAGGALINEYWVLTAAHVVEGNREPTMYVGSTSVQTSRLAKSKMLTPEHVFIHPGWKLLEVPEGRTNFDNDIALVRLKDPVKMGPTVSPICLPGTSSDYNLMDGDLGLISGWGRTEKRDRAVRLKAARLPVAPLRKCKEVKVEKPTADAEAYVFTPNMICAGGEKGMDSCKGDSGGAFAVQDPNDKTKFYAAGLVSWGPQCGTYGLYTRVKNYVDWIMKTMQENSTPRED
T1 sequence (P09871 16-437 partner limits assumed): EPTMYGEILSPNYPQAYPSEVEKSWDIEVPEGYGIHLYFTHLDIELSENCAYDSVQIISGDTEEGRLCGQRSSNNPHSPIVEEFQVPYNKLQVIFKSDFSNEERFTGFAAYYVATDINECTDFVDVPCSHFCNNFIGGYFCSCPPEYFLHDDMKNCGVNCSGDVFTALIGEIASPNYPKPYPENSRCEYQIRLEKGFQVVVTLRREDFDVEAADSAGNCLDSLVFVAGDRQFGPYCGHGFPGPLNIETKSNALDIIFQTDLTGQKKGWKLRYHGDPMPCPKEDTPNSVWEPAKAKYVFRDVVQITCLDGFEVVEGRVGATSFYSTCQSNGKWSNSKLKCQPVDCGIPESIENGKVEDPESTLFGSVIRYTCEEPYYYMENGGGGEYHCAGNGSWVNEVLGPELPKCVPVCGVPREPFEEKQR
Test: Human C1s enzyme assay
Assay type: biochemical
Conditions: human complement C1s enzyme 1.16 nM, substrate Z-L-Lys-SBzl, A405; read-out: IC50 (Stars)
Procedure: The […] values of the compounds of Table 1 were determined with the human C1s enzyme assay described below. Other standard complement assays are also available.
Human complement C1s enzyme (purified from human serum, Complement Technology, Inc.) at 1.16 nM final concentration was incubated with test compound at various concentrations for 5 min at room temperature in 50 mM Tris, 1 M NaCl, pH 7.5. A synthetic substrate Z-L-Lys-SBzl and DTNB (Ellman's reagent) were added to final concentrations of 100 μM each. Absorbance at 405 nm (A405) was recorded at 30 second intervals for […] using a microplate spectrophotometer. IC values were calculated by nonlinear regression of complement C1s reaction rates as a function of test compound concentration.
[…]; ND indicates a compound for which the IC50 value is not determined.

| SMILES | IC50 |
| --- | --- |
| O=C(Cn1c(-c2ccccc2)ncc(NCc2ccc(Oc3ccccc3)cc2)c1=O)NCc1cc2cnccc2[nH]1 [Compound 20, N-((1H-pyrrolo[3,2-c]pyridin-2-yl)methyl)-2-(6-oxo-5-((4-phenoxybenzyl)amino)-2-phenylpyrimidin-1(6H)-yl)-acetamide] | < 100 nM |
| O=C(Cn1c(-c2ccccc2)ncc(NCCCCc2ccc(Oc3ccccc3)cc2)c1=O)NCc1cc2cnccc2[nH]1 [Compound 21, N-((1H-pyrrolo[3,2-c]pyridin-2-yl)methyl)-2-(6-oxo-5-((4-(4-phenoxyphenyl)butyl)amino)-2-phenylpyrimidin-1(6H)-yl)acetamide] | < 100 nM |
| O=C(Cn1c(-c2ccccc2)ncc(NCc2ccc3c(c2)-c2ccccc2C3(F)F)c1=O)NCc1cc2cnccc2[nH]1 [Compound 22, N-((1H-pyrrolo[3,2-c]pyridin-2-yl)methyl)-2-(5-(((9,9-difluoro-9H-fluoren-3-yl)meth-yl)amino)-6-oxo-2-phenyl-pyrimidin-1(6H)-yl)acetamide] | < 100 nM |
| O=C(Cn1c(-c2ccccc2)ncc(NC(=O)CCC(=O)c2ccc(Oc3ccccc3)cc2)c1=O)NCc1cc2cnccc2[nH]1 [Compound 23, N-(1-(2-(((1H-pyrrolo[3,2-c]pyridin-2-yl)methyl)amino)-2-oxoethyl)-6-oxo-2-phenyl-1,6-dihydropyrimidin-5-yl)-4-oxo-4-(4-phenoxyphenyl)butanamide] | < 100 nM |
| O=C(Cn1c(-c2ccccc2)ncc(NC(=O)Cc2ccccc2)c1=O)NCc1cc2cnccc2[nH]1 [Compound 24, N-((1H-pyrrolo[3,2-c]pyridin-2-yl)methyl)-2-(6-oxo-2-phen-yl-5-(2-phenylacetamido)pyr-imidin-1(6H)-yl)acetamide] | < 100 nM |
| O=C(Cn1c(-c2ccccc2)ncc(-c2ccccc2)c1=O)NCc1cc2cnccc2[nH]1 [Compound 25, N-((1H-pyrrolo[3,2-c]pyridin-2-yl)methyl)-2-(6-oxo-2,5-diphenylpyrimidin-1(6H)-yl)acetamide] | > 1000 nM |
| O=C(Cn1c(-c2ccccc2)ncc(NCc2ccc3c(c2)oc2ccccc23)c1=O)NCc1cc2cnccc2[nH]1 [Compound 26, N-((1H-pyrrolo[3,2-c]pyridin-2-yl)methyl)-2-(5-((dibenzo[b,d]furan-3-ylmethyl)amino)-6-oxo-2-phenylpyrimidin-1(6H)-yl)acetamide] | < 100 nM |
| O=C(Cn1c(-c2ccccc2)ncc(NCCCc2ccc(Cl)cc2)c1=O)NCc1cc2cnccc2[nH]1 [Compound 27, N-((1H-pyrrolo[3,2-c]pyridin-2-yl)methyl)-2-(5-((3-(4-chlorophenyl)propyl)amino)-6-oxo-2-phenylpyrimidin-1(6H)-yl)acetamide] | < 100 nM |
| N#Cc1ccc(CCNc2cnc(-c3ccccc3)n(CC(=O)NCc3cc4cnccc4[nH]3)c2=O)cc1 [Compound 28, N-((1H-pyrrolo[3,2-c]pyridine-2-yl)methyl)-2-(5-((4-cyanophenethyl)amino)-6-oxo-2-phenylpyrimidin-1(6H)-yl)acetamide] | < 100 nM |
| O=C(Cn1c(-c2ccccc2)ncc(NC(=O)c2ccc(-c3ccccc3)cc2)c1=O)NCc1cc2cnccc2[nH]1 [Compound 29, N-(1-(2-(((1H-pyrrolo[3,2-c]pyridin-2-yl)methyl)amino)-2-oxoethyl)-6-oxo-2-phenyl-1,6-dihydropyrimidin-5-yl)-[1,1′-biphenyl]-4-carboxamide] | < 100 nM |
| O=C(Cn1c(-c2ccccc2)ncc(-c2nc3c(s2)CCCC3)c1=O)NCc1cc2cnccc2[nH]1 [Compound 30, N-((1H-pyrrolo[3,2-c]pyridin-2-yl)methyl)-2-(6-oxo-2-phenyl-5-(4,5,6,7-tetrahydrobenzo[d]thiazol-2-yl)pyrimidin-1(6H)-yl)acetamide] | > 1000 nM |
| O=C(Cn1c(-c2ccccc2)ncc(NC(=O)OCc2ccccc2)c1=O)NCc1cc2cnccc2[nH]1 [Compound 31, benzyl (1-(2-(((1H-pyrrolo[3,2-c]pyridin-2-yl)methyl)amino)-2-oxoethyl)-6-oxo-2-phenyl-1,6-dihydropyrimidin-5-yl)-carbamate] | > 1000 nM |
| O=C(Cn1c(-c2ccccc2)ncc(NCc2ccc3oc4ccccc4c3c2)c1=O)NCc1cc2cnccc2[nH]1 [Compound 32, N-((1H-pyrrolo[3,2-c]pyridin-2-yl)methyl)-2-(5-((dibenzo [b,d]furan-2-ylmethyl)amino)-6-oxo-2-phenylpyrimidin-1(6H)-yl)acetamide] | < 100 nM |
| O=C(Cn1c(-c2ccccc2)ncc(NCCNC(=O)c2ccc(Oc3ccccc3)cc2)c1=O)NCc1cc2cnccc2[nH]1 [Compound 33, N-(2-((1-(2-(((1H-pyrrolo[3,2-c]pyridin-2-yl)methyl)amino)-2-oxoethyl)-6-oxo-2-phenyl-1,6-dihydropyrimidin-5-yl)amino)ethyl)-4-phenoxybenzamide] | < 100 nM |
| O=C(Cn1c(-c2ccccc2)ncc(NCCCc2ccc(OC(F)F)cc2)c1=O)NCc1cc2cnccc2[nH]1 [Compound 34, N-((1H-pyrrolo[3,2-c]pyridin-2-yl)methyl)-2-(5-((3-(4-(difluoromethoxy)phenyl)prop-yl)amino)-6-oxo-2-phenyl-pyrimidin-1(6H)-yl)acetamide] | < 100 nM |
| O=C(Cn1c(-c2ccccc2)ncc(NCCNC(=O)c2ccc3oc4ccccc4c3c2)c1=O)NCc1cc2cnccc2[nH]1 [Compound 35, N-(2-((1-(2-(((1H-pyrrolo[3,2-c]pyridin-2-yl)methyl)amino)-2-oxoethyl)-6-oxo-2-phenyl-1,6-dihydropyrimidin-5-yl)amino)ethyl)dibenzo[b,d]furan-2-carboxamide] | < 100 nM |
| O=C(Cn1c(-c2ccccc2)ncc(NCCNC(=O)c2ccc3c(c2)-c2ccccc2C3(F)F)c1=O)NCc1cc2cnccc2[nH]1 [Compound 36, N-(2-((1-(2-(((1H-pyrrolo[3,2-c]pyridin-2-yl)methyl)amino)-2-oxoethyl)-6-oxo-2-phenyl-1,6-dihydropyrimidin-5-yl)-amino)ethyl)-9,9-difluoro-9H-fluorene-3-carboxamide] | < 100 nM |
| O=C(Cn1c(-c2ccccc2)ncc(N2CCN(c3ccccc3)CC2)c1=O)NCc1cc2cnccc2[nH]1 [Compound 37, N-((1H-pyrrolo[3,2-c]pyridin-2-yl)methyl)-2-(6-oxo-2-phen-yl-5-(4-phenylpiperazin-1-yl)-pyrimidin-1(6H)-yl)acetamide] | 100 to 1000 nM |
| O=C(Cn1c(-c2ccccc2)ncc(NC(=O)Cc2ccc(Oc3ccccc3)cc2)c1=O)NCc1cc2cnccc2[nH]1 [Compound 38, N-((1H-pyrrolo[3,2-c]pyridin-2-yl)methyl)-2-(6-oxo-5-(2-(4-phenoxyphenyl)acetamido)-2-phenylpyrimidin-1(6H)-yl)-acetamide] | < 100 nM |
| O=C(Cn1c(-c2ccccc2)ncc(NCCCc2ccc(OC(F)(F)F)cc2)c1=O)NCc1cc2cnccc2[nH]1 [Compound 39, N-((1H-pyrrolo[3,2-c]pyridin-2-yl)methyl)-2-(6-oxo-2-phen-yl-5-((3-(4-(trifluoromethoxy)-phenyl)propyl)amino)pyrimi-din-1(6H)-yl)acetamide] | < 100 nM |
| O=C(Cn1c(-c2ccccc2)ncc(NCCCc2ccc3oc4ccccc4c3c2)c1=O)NCc1cc2cnccc2[nH]1 [Compound 40, N-((1H-pyrrolo[3,2-c]pyridin-2-yl)methyl)-2-(5-((3-(dibenzo [b,d]furan-2-yl)propyl)amino)-6-oxo-2-phenylpyrimidin-1(6H)-yl)acetamide] | < 100 nM |
| O=C(Cn1c(-c2ccccc2)ncc(NCCCc2ccc(C(=O)c3ccccc3)cc2)c1=O)NCc1cc2cnccc2[nH]1 [Compound 41, N-((1H-pyrrolo[3,2-c]pyridin-2-yl)methyl)-2-(5-((3-(4-benzo-ylphenyl)propyl)amino)-6-oxo-2-phenylpyrimidin-1(6H)-yl)-acetamide] | < 100 nM |
| CS(=O)(=O)c1ccc(CCCNc2cnc(-c3ccccc3)n(CC(=O)NCc3cc4cnccc4[nH]3)c2=O)cc1 [Compound 42, N-((1H-pyrrolo[3,2-c]pyridin-2-yl)methyl)-2-(5-((3-(4-(methylsulfonyl)phenyl)propyl)amino)-6-oxo-2-phenylpyrimidin-1(6H)-yl)acetamide] | < 100 nM |
| O=C(Cn1c(-c2ccccc2)ncc(NCc2cc3ccc2CCc2ccc(cc2)CC3)c1=O)NCc1cc2cnccc2[nH]1 [Compound 43, 2-(5-((1,4(1,4)-dibenzena-cyclohexaphane-1(2)-ylmeth-yl)amino)-6-oxo-2-phenylpyr-imidin-1(6H)-yl)-N-((1H-pyr-rolo[3,2-c]pyridin-2-yl)meth-yl)acetamide] | > 1000 nM |
